“Also recorded” adds a separate entry of the source.
Tests used:
Assay type in all cases: cell-based
CHRM2 [1] = molecular target: T1, CHRM2 (Homo sapiens, UniProt P08172); experiment: IC50 antagonist activity screen, PathHunter β-Arrestin, CHRM2; conditions: for maximum inhibition (antagonism) CHRM2: maximum of IC50 curve; for antagonism of CHRM2 (in words): IC50 data
T1 sequence (P08172 1-466): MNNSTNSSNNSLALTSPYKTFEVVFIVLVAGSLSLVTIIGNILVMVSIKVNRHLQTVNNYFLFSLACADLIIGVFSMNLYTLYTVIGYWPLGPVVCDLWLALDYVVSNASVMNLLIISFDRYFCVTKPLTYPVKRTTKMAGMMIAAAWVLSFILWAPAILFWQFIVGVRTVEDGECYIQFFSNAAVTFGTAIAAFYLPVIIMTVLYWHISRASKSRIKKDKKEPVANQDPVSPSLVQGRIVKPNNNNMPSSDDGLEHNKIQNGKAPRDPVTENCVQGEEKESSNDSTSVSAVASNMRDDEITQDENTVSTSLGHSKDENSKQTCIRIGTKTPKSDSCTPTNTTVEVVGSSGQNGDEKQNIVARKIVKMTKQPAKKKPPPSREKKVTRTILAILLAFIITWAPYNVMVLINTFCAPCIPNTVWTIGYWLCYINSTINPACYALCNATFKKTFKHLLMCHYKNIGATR
Experimental: (§1) In each of the antagonist assays, PathHunter® cell lines were removed from a freezer stock and seeded at a volume of 20 μL into white walled, 384-well microplates and incubated at 37° C. Each cell was pre-incubated with an antagonist followed by an agonist challenge at the EC80 concentration. Cells were then diluted to generate a 5× sample in assay buffer. 5 μL of the 5× sample was then added to cells and incubated at 37° C. for 30 minutes. Finally, 5 μL of 6×EC80 agonist in assay buffer were added to the cells and incubated at 37° C. for 90 minutes or 180 minutes. The assay signal was generated through addition of 12.5 μL or 15 μL (50% V/V) of a detection reagent cocktail followed by a one hour incubation time at room temperature. Microplates were read following signal generation with a PerkinElmer Envision™ (PerkinElmer Inc., Waltham, Mass.) for chemiluminescent signal detection. Reactivity was analyzed using the CBIS data analysis suite (ChemInnovation, CA) where RLU refers to the raw measured values. The percent inhibition was calculated using the formula: % Inhibition=100%*(1−mean RLU of test sample−mean RLU of control)/(mean RLU of EC80 control−mean RLU of vehicle control).
(§2) IC50 curves were measured using the same GPCR assay, PathHunter® β-Arrestin from Eurofins DiscoverX Products (Fremont, Calif.), as the GPCR reactivity screen. As used herein, strong activity against a receptor is considered a maximum activity of about 42% or higher. Higher results for antagonism against CHRM2, EDGE, and MRGPRX2 are considered better. It is further considered better when a cannabinoid inhibits more than one of the receptors.

EDG3 [2] = molecular target: T2, EDG3 (Homo sapiens, UniProt Q99500); experiment: IC50 antagonist activity screen, PathHunter β-Arrestin, EDG3; conditions: for maximum inhibition (antagonism) EDG3: maximum of IC50 curve; for antagonism of EDG3 (in words): IC50 data
T2 sequence (Q99500 whole entry): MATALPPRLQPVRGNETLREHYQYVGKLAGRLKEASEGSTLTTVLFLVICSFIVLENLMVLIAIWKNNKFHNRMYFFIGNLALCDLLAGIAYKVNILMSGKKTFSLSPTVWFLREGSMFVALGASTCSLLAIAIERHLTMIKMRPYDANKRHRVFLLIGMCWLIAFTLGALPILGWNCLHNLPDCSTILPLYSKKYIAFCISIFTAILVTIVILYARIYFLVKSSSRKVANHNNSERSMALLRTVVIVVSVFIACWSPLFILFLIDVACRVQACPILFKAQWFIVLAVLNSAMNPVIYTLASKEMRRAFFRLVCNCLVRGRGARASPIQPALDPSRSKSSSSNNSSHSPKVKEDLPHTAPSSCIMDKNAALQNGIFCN
Experimental: as §1, §2

MRGPRX2 [3] = molecular target: T3, MRGPRX2 (Homo sapiens, UniProt Q96LB1); experiment: IC50 antagonist activity screen, PathHunter β-Arrestin, MRGPRX2; conditions: for maximum inhibition (antagonism) MRGPRX2: maximum of IC50 curve; for antagonism of MRGPRX2 (in words): IC50 data
T3 sequence (Q96LB1 1-330): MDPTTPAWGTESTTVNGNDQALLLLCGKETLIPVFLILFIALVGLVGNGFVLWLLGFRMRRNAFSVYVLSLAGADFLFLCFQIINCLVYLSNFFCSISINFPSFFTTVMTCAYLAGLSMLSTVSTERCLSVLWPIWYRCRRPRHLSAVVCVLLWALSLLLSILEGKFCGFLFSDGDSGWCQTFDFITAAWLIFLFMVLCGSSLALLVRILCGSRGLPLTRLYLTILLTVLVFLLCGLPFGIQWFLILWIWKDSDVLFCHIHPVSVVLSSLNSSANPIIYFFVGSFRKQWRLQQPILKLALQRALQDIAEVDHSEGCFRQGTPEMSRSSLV
Experimental: as §1, §2

CHRM2 [4] = molecular target: T1, CHRM2; experiment: GPCR reactivity screen, PathHunter β-Arrestin, agonist assay CHRM2; set-up: concentration or dose not given beside the values; conditions: agonist mode; control acetylcholine
Experimental: (§3) To evaluate the role specific cannabinoid compounds play in the neurological signaling pathway for itching, a GPCR reactivity assay was performed to determine the reactivity of 19 cannabinoid compounds to each of CHRM2, EDG3, and MRGPRX2. The evaluated cannabinoid compounds were: CBN, THCV, CBDVA, CBG, CBL, CBC, CBDV, CBDA, CBD, CBGA, (+)-CBD, CBG-C4, CBD-C1, CBD-C2, CBGV, CBGA-C4, CBGVA, CBCA, and CBLA. Acetylcholine was used as the control for CHRM2, sphingosine-1-phosphate was used as the control for EDG3; and cortistatin 14 was used as the control for MRGPRX2.
(§4) A total of six assays were run. Specifically, agonist and antagonist assays were run for each of CHRM2, EDG3, and MRGPRX2. In each of the three agonist assays, PathHunter® cell lines were removed from a freezer stock and seeded at a volume of 20 μL into white walled, 384-well microplates and incubated at 37° C. Each cell was incubated with a sample to induce a response and then diluted to generate a 5× sample in assay buffer. 5 μL of the 5× sample was then added to cells and incubated at 37° C. for 90 or 180 minutes. The final assay concentration was 1%. The assay signal was generated through addition of 12.5 μL or 15 μL (50% V/V) of a detection reagent cocktail followed by a one hour incubation time at room temperature. Microplates were read following signal generation with a PerkinElmer Envision™ (PerkinElmer Inc., Waltham, Mass.) for chemiluminescent signal detection. Reactivity was analyzed using the CBIS data analysis suite (ChemInnovation, CA) where RLU refers to the raw measured values. The percent activity was then calculated using the formula: % Activity=100%*(mean RLU of test sample−mean RLU of control)/(mean max control ligand−mean RLU of vehicle control).
(§5) As used herein, strong activity against a receptor is considered a percent activity of about 42% or higher. Higher results for antagonism against CHRM2, EDGE, and MRGPRX2 are considered better. It is further considered better when a cannabinoid inhibits more than one of the receptors.

CHRM2 [5] = molecular target: T1, CHRM2; experiment: GPCR reactivity screen, PathHunter β-Arrestin, antagonist assay CHRM2; conditions: for antagonist activity against CHRM2 (in words): GPCR reactivity screen; for CHRM2 (Antagonist) percent inhibition: antagonist mode, agonist challenge at EC80
Experimental: as §3, §1, §5

EDG3 [6] = molecular target: T2, EDG3; experiment: GPCR reactivity screen, PathHunter β-Arrestin, agonist assay EDG3; set-up: concentration or dose not given beside the values; conditions: agonist mode; control sphingosine-1-phosphate
Experimental: as §3, §4, §5

EDG3 [7] = molecular target: T2, EDG3; experiment: GPCR reactivity screen, PathHunter β-Arrestin, antagonist assay EDG3; conditions: for EDG3 (Antagonist) percent inhibition: antagonist mode, agonist challenge at EC80
Experimental: as §3, §1, §5

MRGPRX2 [8] = molecular target: T3, MRGPRX2; experiment: GPCR reactivity screen, PathHunter β-Arrestin, agonist assay MRGPRX2; conditions: agonist mode; control cortistatin 14
Experimental: as §3, §4, §5

MRGPRX2 [9] = molecular target: T3, MRGPRX2; experiment: GPCR reactivity screen, PathHunter β-Arrestin, antagonist assay MRGPRX2; conditions: for antagonist activity against MRGPRX2 (in words): GPCR reactivity screen; for MRGPRX2 (Antagonist) percent inhibition: antagonist mode, agonist challenge at EC80
Experimental: as §3, §1, §5

SMILES	maximum inhibition (antagonism) CHRM2 (CHRM2 [1]) [%]	maximum inhibition (antagonism) EDG3 (EDG3 [2]) [%]	maximum inhibition (antagonism) MRGPRX2 (MRGPRX2 [3]) [%]	antagonism of CHRM2 (in words) (CHRM2 [1])	antagonism of EDG3 (in words) (EDG3 [2])	antagonism of MRGPRX2 (in words) (MRGPRX2 [3])	CHRM2 (Agonist) percent activity (CHRM2 [4]) [%]	antagonist activity against CHRM2 (in words) (CHRM2 [5])	CHRM2 (Antagonist) percent inhibition (CHRM2 [5]) [%]	EDG3 (Agonist) percent activity (EDG3 [6]) [%]	EDG3 (Antagonist) percent inhibition (EDG3 [7]) [%]	MRGPRX2 (Agonist) percent activity (MRGPRX2 [8]) [%]	antagonist activity against MRGPRX2 (in words) (MRGPRX2 [9])	MRGPRX2 (Antagonist) percent inhibition (MRGPRX2 [9]) [%]	antagonist activity against EDG3 (in words) (EDG3 [7]; GPCR reactivity screen)
CCCCCCCCCc1cc(O)c(C/C=C(\C)CCC=C(C)C)c(O)c1 [CBG-C9, cannabigerol nonyl]	32	55	100												
CCCCCCc1cc(O)c(C/C=C(\C)CCC=C(C)C)c(O)c1C(=O)O [CBGA-C6, cannabigerolic acid hexyl]	6	33	13	do not exhibit an antagonistic effect	do not exhibit an antagonistic effect	do not exhibit an antagonistic effect									
CCCCCCCc1cc(O)c(C/C=C(\C)CCC=C(C)C)c(O)c1C(=O)O [CBGA-C7, cannabigerolic acid heptyl]	4	30	37	do not exhibit an antagonistic effect	do not exhibit an antagonistic effect	do not exhibit an antagonistic effect									
CCCCCCCCCc1cc(O)c(C/C=C(\C)CCC=C(C)C)c(O)c1C(=O)O [CBGA-C9, cannabigerolic acid nonyl]	11	58	56												
CCCCCc1cc(O)c2c(c1)OC1(C)CCC3C1C2C3(C)C (stereo not drawn) [CBL, cannabicyclol]	47		81				13	antagonist activity	84	−1	9	11	antagonist activity	82	
CCCCCc1cc(O)c2c(c1)OC(C)(C)c1ccc(C)cc1-2 [CBN, cannabinol]			78				0		7	5	12	22	antagonist activity	73	
CCCc1cc(O)c2c(c1)OC(C)(C)[C@@H]1CCC(C)=C[C@@H]21 [THCV, tetrahydrocannabivarin]	0		21			inhibition was not observed	18	do not exhibit an antagonistic effect	42	1	20	18	do not exhibit an antagonistic effect; also recorded: antagonist activity; also recorded: demonstrated antagonism	55	do not exhibit an antagonistic effect

— patent US20230000936A1, “A[…] ITCHING […] C[…]” (Demetrix, Inc., priority 2021, published 2023)
